The source of these data is US20260200982A1, “HER RECEPTOR DERIVED PEPTIDES AND METHODS OF USE THEREOF” (Ramot at Tel-Aviv University Ltd., priority 2022, published 2026).

As usually defined, the IC50 is the concentration that gives 50% inhibition.

The star is where a group is joined. Myristoyl = CCCCCCCCCCCCCC(=O)*

The test system of experiment [1] is LNCaP prostate cancer cells. Nature of the experiment: Methylene blue viability assay, LNCaP. The settings on record: 72 hours, FIGS. 4B and 4C, read-out: IC50 (cell viability). It is filed as cell-based, human. An excerpt: Cell lines—Human breast cancer cell lines SKBR3 [Peles E et al. EMBO J. (1993) 12(3):961-71] and MCF7 [Faigenbloom L et al., Mol Syst Biol. (2015) 11(12):845] and human glioblastoma U87 [Goldberg L et al. Cancer Res. (2006) 66(24):11709-17] cell line, as well as Rat-1 fibroblast cells and H-Ras-transformed Rat-1 cells (EJ cells) [Marom M et al. J Biol Chem. (1995) 270(38):22263-70] and human Panc-1 and MIA PaCa-2 pancreatic cell lines (Rak R et al. Oncoscience. 2014 1(1):39-48; Weisz B et al. Oncogene (1999) 18, 2579±2588) were all grown in Dulbecco's modified Eagle's medium (DMEM; Biological Industries, Beithaemek, Israel). Human colorectal cancer cell lines DLD-1 (ATTC Cat No. CCL-221), HCT-116 (ATTC Cat No. CCL-247) and LNCaP prostate cancer cells were grown in Roswell Park Memorial Institute 1640 (RPMI 1640) medium and McCoy's 5A media, respectively (Sigma-Aldrich). All media were supplemented with antibiotics and 10% heat-inactivated fetal bovine serum (FBS; Gibco). Human breast cell line MCF10A [Bott A et al. Oncotarget. […]
Methylene blue viability assay—Cells were plated in 96-wells plates at cell densities of 1.5×10^3 (EJ, DLD-1), 3×10^3 (Rat-1, HCT-116, U87), 5×10^3 (SKBR3, MCF7) and 6×10^3 (MCF10A) cells/well. […] IC-50 values were calculated using a non-linear regression model (logarithmic inhibitor vs. normalized response-variable slope) with the GraphPad Prism 6 software.

For the next experiment, the system named is MIA PaCa-2 cells. In words: Colony formation assay, MIA PaCa-2. The experiment is classed as cell-based, human. The settings on record: 4.5 μM, 72 hours, FIG. 8. On the procedure: (§1) Colony formation assay—Cells were plated onto 12-well plate (6×10^4 cells/well) and treated with either PBS or myr-NLS at the IC50 concentration for 3 days. Cells were collected and replated in 10-cm plates (at 3 dilutions of 1:10, 1:20 and 1:40). After 7-14 days when visible and yet separated colonies were formed, the cells were fixed with 0.1% acetic acid in PBS, and stained with 0.4% crystal violet in 0.1% acetic acid. Total colonies area was calculated using the ImageJ program.
In order to test the effect of myr-NLS on cell tumorigenicity, a colony formation assay was performed. To this end, Panc-1 and MIA PaCa-2 cells were treated or untreated for 72 hours with IC50 dose of myr-NLS (SEQ ID NO: 5, 8 μM and 4.5 μM respectively). Cells were then seeded at the same dilutions in new plates until colonies were formed.

The next experiment concerns DLD-1 cells. Nature of the experiment: Colony formation assay, DLD-1. The experiment is classed as cell-based, human. The settings on record: 20 μM, 72 hours, FIG. 12. On the procedure:
as §1
In addition, a colony formation assay was conducted to further examine the anti-tumor effect of the myr-NLS (SEQ ID NO: 5), myr-NLS2 (SEQ ID NO: 15) and myr-NLS4 (SEQ ID NO: 17) peptides. To this end, DLD-1 cells were treated or untreated for 72 hours with 20 μM of the myr-peptides. Cells were then seeded at the same dilutions in new plates until colonies were formed.

Another experiment concerns ErbB2. Nature of the experiment: Western blot analysis of dissected Panc-1 tumors, ErbB2. It is filed as in vivo, human. The settings on record: Panc-1 tumor lysates; FIGS. 10A-C. On the procedure: Pancreatic Tumor Growth in Nude Mice—The study was conducted according to the NIH Guidelines for Use and Care of Laboratory Animals and following the approval by Animal Care Committee of the Tel Aviv University. Nude CD1-Nu mice (25-30 g) housed in barrier facilities on a 12-h light/dark cycle one week prior to the injection of tumor cells (day zero). On day zero, 2×10^6 Panc 1 cells in 0.1 ml of PBS were implanted subcutaneously just above the right femoral joint. Tumor size was measured every 3-4 days. When the tumors were apparently seen and the calculated tumor size was 40 mm^3, the animals were divided randomly into two groups of mice (control vehicle treated and myr-NLS (SEQ ID NO: 5) treated; 8 mice per group). Treatment with the myr-NLS (SEQ ID NO: 5) was performed by intraperitoneal injection of 25 μg in 100 μl PBS (or 100 μl PBS for control mice) every day. Tumors size was measured 3 times a week. At the end of the experiment, the mice were sacrificed, and the tumors were dissected and used for further analysis.
Western blot analysis—Half of each tumor was homogenized in lysis buffer, using a Potter-Elvehjem manual homogenizer, cleared and kept at −70° C. […] Immunoreactive bands were detected with the enhanced chemiluminescence reagent (Luminata Crescendo Western HRP). Densitometric quantification analysis of the resulted images was done using ImageJ program. […]
For orientation: A western blot detects proteins with antibodies after separation by electrophoresis.

“Myr-RRRHIVRKRTLRRLL-OH (Myristoyl-RRRHIVRKRTLRRLL-OH; SMILES CCCCCCCCCCCCCC(=O)N[C@@H](CCCNC(=N)N)C(=O)N[C@@H](CCCNC(=N)N)C(=O)N[C@@H](CCCNC(=N)N)C(=O)N[C@@H](Cc1c[nH]cn1)C(=O)N[C@H](C(=O)N[C@H](C(=O)N[C@@H](CCCNC(=N)N)C(=O)N[C@@H](CCCCN)C(=O)N[C@@H](CCCNC(=N)N)C(=O)N[C@H](C(=O)N[C@@H](CC(C)C)C(=O)N[C@@H](CCCNC(=N)N)C(=O)N[C@@H](CCCNC(=N)N)C(=O)N[C@@H](CC(C)C)C(=O)N[C@@H](CC(C)C)C(=O)O)[C@@H](C)O)C(C)C)[C@@H](C)CC) [myr-NLS]”: in experiment [1], the IC50 was 7.6 µM. In the experiment with MIA PaCa-2 cells, the “colony formation (total colonies area)” value was “fewer and smaller colonies”. In addition, in the experiment with DLD-1 cells, the “colony formation (total colonies area)” value was “fewer and smaller colonies”. Further, in the experiment with ErbB2, the “levels of total ErbB2 in tumors” value was “reduced” and the “phosphorylated ErbB2 expression in tumors” value is given as “reduced”.
